Measured values published in PMC5701137, “Discovery of novel choline acetyltransferase inhibitors using structure-based virtual screening” (Scientific Reports, 2017).

What was measured:
Type in all cases: biochemical
human rChAT = molecular target: T1, human rChAT (Homo sapiens, UniProt P28329); experiment: In vitro ChAT activity inhibition fluorometric assay and kinetic studies; conditions: 100 µM compound; compared to control; mean of three experiments in triplicate; read-out: ChAT % IR (inhibition rate)
T1 construct: made in house; host or cells: E. coli BL21 Rosetta2
T1 sequence (P28329 1-630 isoform P28329-3): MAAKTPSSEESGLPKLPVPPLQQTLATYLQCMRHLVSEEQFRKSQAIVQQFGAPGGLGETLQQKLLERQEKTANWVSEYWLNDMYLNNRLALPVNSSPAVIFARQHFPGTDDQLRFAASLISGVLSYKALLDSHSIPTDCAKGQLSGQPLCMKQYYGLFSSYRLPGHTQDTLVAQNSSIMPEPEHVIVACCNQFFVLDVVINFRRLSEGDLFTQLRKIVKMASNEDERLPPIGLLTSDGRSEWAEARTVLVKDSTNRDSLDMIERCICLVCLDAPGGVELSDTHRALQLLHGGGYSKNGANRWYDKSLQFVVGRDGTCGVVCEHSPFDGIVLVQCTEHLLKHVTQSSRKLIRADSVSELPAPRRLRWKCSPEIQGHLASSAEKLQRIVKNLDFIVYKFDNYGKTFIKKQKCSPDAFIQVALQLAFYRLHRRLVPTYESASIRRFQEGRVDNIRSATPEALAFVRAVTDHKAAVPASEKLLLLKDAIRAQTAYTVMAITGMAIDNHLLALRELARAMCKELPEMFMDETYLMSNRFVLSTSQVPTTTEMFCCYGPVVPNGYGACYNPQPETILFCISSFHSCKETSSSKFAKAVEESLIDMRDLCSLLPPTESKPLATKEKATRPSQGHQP
Method: ChAT activity was measured using our newly developed fluorometric assay, using human recombinant ChAT (rChAT) protein. The reagents, choline chloride, acetyl coenzyme-A (ACoA, A2181) and 7-Diethylamino-3-(4-maleimidophenyl)-4-methylcoumarin (CPM) were purchased from Sigma-Aldrich (St. Louis, MO, USA).
The ChAT assay could be run in either 96-well or 384-well plates. For 96-well plates, 50 μL/well of 0.212 µg/ml (final concentration) of the recombinant ChAT was incubated with 100 μM different Asinex compounds (50 μL/well) for 10–30 minutes at room temperature in dilution buffer (10 mM Tris-HCl, pH 7.4, 150 mM NaCl, 1.0 mM EDTA, 0.05% (v/v) Triton X-100). Then, 50 µL of a cocktail-A [dilution buffer containing choline chloride (final concentration 150 µM), ACoA (final concentration 13.3 µM) and CPM (final concentration 15 µM)] was added to each well. Immediately after adding the cocktail-A, the changes in fluorescence was monitored kinetically at 479 nm after exciting at 390 nm at 1–2 minute intervals for 15–20 minutes using a microplate spectrophotometer reader (Infinite M1000, Tecan).
Each Asinex compounds were run in triplicates. On each 96-wells plate, several enzyme wells without inhibitor were also included during measurements as control and for estimating the inhibition level. Negative controls were wells without enzyme. The percentage inhibition for each Asinex compound was calculated based on the enzyme control value as a reference (100% activity). The compounds showing over 50% inhibition of enzyme activity were selected for further kinetic studies.
(§1) For kinetic studies, a similar protocol as inhibition assay was followed; a dilution series of five different concentrations ranging from 10^−6 to 10^−9 M were prepared for each selected Asinex compounds. For ChAT, the A-CoA was kept constant at 10 μM (final) but the concentration of choline chloride varied between 320–10 μM. For BuChE, BTC was used as the substrate in the concentrations ranging from 0.0625 to 2 mM. For AChE, ATC was used as the substrate in the concentrations ranging from 0.0312 to 1 mM. Each compound concentration was measured in duplicates. The rate of enzyme activity (as ∆OD/hr kinetic data) was calculated and processed using the GraphPad Prism 7 analysis software. The inhibitory constant (Ki) values were determined from the dose-response curve and the half-maximal inhibitory concentration (IC50) values were calculated by plotting the percentage enzyme activity vs. the log of the Asinex compound concentrations and fitting the data using the nonlinear regression Enzyme Kinetics-Inhibition function.
The Michaelis-Menten constant (Km) and maximal velocity (Vmax) values were calculated from substrate-velocity curve after fitting the data with non-linear regression Michaelis-Menten kinetic function. The Km and Vmax values were further used to plot the Lineweaver-Burk plots; the plots were fitted using linear regression function.

recombinant human AChE = molecular target: T2, recombinant human AChE (Homo sapiens, UniProt P22303); experiment: Modified Ellman's colorimetric assay for AChE and kinetic studies; conditions: for inhibition at 200 µM: 200 µM compound, compared to control, mean of three experiments in triplicate, read-out: AChE % IR (inhibition rate); for Ki / IC50: mean of two experiments; for IC50: substrate ATC 0.5 mM
T2 construct: purchased Sigma C1682
T2 sequence (P22303 32-614): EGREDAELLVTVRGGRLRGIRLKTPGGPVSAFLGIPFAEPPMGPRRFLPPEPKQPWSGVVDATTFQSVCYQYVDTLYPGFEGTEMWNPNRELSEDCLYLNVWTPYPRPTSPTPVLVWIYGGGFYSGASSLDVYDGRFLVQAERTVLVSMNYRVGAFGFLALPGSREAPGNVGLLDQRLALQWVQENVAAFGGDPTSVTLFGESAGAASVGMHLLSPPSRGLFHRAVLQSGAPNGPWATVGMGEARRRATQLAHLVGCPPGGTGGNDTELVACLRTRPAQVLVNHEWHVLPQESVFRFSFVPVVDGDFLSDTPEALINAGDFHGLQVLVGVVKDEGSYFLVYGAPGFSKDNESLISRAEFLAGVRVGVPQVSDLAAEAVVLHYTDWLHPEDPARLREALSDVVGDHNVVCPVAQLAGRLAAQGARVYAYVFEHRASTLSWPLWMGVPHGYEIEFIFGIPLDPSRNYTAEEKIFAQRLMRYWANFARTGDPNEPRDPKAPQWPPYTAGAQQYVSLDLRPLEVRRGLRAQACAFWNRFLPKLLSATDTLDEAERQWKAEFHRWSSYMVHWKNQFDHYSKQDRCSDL
From the text: (§2) A modified version of Ellman’s colorimetric assay[16],[17] was adapted to a high throughput assay for the enzymatic activity of BuChE and AChE. The reagent, butyrylthiocholine iodide (BTC), acetylthiocholine iodide (ATC), 5,5′-dithiobis (2-nitrobenzoic acid) (DTNB) were purchased from Sigma-Aldrich (St. Louis, MO, USA). The modified assay details are as previously described[34],[35]. The main modification concerned with the high throughput adaptation of the assay for use in 384-well plates. Briefly, 25 μL/well of a 1:450 diluted solution of a pooled human plasma and 1:768 diluted (3.5 ng/ml final concentration) purified recombinant human AChE protein (Sigma, Cat no. C1682) was used for measurement of BuChE and AChE activity, respectively. In the initial in vitro screening step, the wells were pre-incubated with 25 μL/wells of different Asinex compounds for 10–30 minutes at room temperature. The concentration of the compounds working solution was 3X to give a final concentration of 200 μM in a final volume of 75 μL in each well. The stock concentration of the compounds were prepared in 100% DMSO. The stock concentration was chosen usually at 10 mM, allowing the final DMSO concentration in the wells to be less than 4%. Finally, 25 μL of a cocktail mix prepared in Na/K phosphate buffer, containing DTNB (final concentration 0.4 mM) and BTC, (final concentration 1 mM) or ATC (final concentration 0.5 mM) was added to each well and the changes in absorbance was monitored at 412 nm wavelength for 15–20 minutes with one-minute interval, using a microplate spectrophotometer reader (Infinite M1000, Tecan). The rate of the enzyme activity was determined from the linear part of the kinetic reaction curves as ∆OD/time.
as §1

plasma BuChE = molecular target: T3, plasma BuChE (Homo sapiens, UniProt P06276); experiment: Modified Ellman's colorimetric assay for BuChE (pooled human plasma) and kinetic studies; conditions: 200 µM compound; compared to control; mean of three experiments in triplicate; read-out: BuChE % IR (inhibition rate)
T3 construct: 1:450 diluted solution of a pooled human plasma; from tissue; host or cells: pooled human plasma
T3 sequence (P06276 29-602): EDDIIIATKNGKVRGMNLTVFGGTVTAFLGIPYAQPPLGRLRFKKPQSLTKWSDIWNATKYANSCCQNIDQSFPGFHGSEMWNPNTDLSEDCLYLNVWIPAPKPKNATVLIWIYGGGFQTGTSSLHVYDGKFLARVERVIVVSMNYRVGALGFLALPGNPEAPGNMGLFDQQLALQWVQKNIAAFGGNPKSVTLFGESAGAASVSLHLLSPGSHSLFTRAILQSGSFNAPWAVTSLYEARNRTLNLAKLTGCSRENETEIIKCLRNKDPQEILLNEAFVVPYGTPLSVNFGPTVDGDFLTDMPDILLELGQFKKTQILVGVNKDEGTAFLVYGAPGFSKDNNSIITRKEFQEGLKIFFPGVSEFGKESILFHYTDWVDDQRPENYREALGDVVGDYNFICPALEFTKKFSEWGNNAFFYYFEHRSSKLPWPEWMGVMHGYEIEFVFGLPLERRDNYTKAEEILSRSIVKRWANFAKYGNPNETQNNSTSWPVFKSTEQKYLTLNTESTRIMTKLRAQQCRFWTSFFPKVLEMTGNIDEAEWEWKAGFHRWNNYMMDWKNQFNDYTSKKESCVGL
From the text: as §2, §1

COc1cc(OC)cc(C(=O)N2CCN(C(=O)C(c3ccccc3)c3ccccc3)CC2)c1 [Compound A1]
inhibition at 100 µM (human rChAT): 0% | inhibition at 200 µM (recombinant human AChE): 0% | inhibition at 200 µM (plasma BuChE): 4.8%

CCOC(=O)c1sc2ncn(CCc3ccccc3)c(=O)c2c1C [Compound A3]
inhibition at 100 µM (human rChAT): 6.9% | inhibition at 200 µM (recombinant human AChE): 0% | inhibition at 200 µM (plasma BuChE): 15.1%

Cc1c(C)n(C(=O)CSc2nnc(-c3ccccc3)o2)c2ccccc12 [Compound A4]
inhibition at 100 µM (human rChAT): 26.7% | inhibition at 200 µM (recombinant human AChE): 0% | inhibition at 200 µM (plasma BuChE): 14.4%

CC1(C)CC(=O)C(=CNCC2CCN(C(=O)Cc3ccc(Cl)cc3)CC2)C(=O)C1 [Compound A5]
inhibition at 100 µM (human rChAT): 2.1% | inhibition at 200 µM (recombinant human AChE): 7% | inhibition at 200 µM (plasma BuChE): 9.2%

Cc1cc2nc(C3CCN(CC(=O)Nc4ccccc4)CC3)[nH]c2cc1C [Compound A6]
inhibition at 100 µM (human rChAT): 0% | inhibition at 200 µM (recombinant human AChE): 11.9% | inhibition at 200 µM (plasma BuChE): 20.2%

Clc1cccc(N2CCN(Cc3nnn(Cc4ccco4)n3)CC2)c1 [Compound A7]
inhibition at 100 µM (human rChAT): 7.2% | inhibition at 200 µM (recombinant human AChE): 15.8% | inhibition at 200 µM (plasma BuChE): 29.9%

COc1ccc(Cl)cc1NC(=O)CCN1CCN(c2ccccc2C)CC1 [Compound B2]
inhibition at 100 µM (human rChAT): 0% | inhibition at 200 µM (recombinant human AChE): 0% | inhibition at 200 µM (plasma BuChE): 18.5%

COc1ccc(CC(=O)Nc2cc3oc4ccccc4c3cc2OC)cc1 [Compound B3]
inhibition at 100 µM (human rChAT): 0% | inhibition at 200 µM (recombinant human AChE): 0% | inhibition at 200 µM (plasma BuChE): 16.6%

COc1cc(CN2CCC(C(=O)N3CCC(C)CC3)CC2)ccc1OCc1ccccc1 [Compound B5]
inhibition at 100 µM (human rChAT): 0% | inhibition at 200 µM (recombinant human AChE): 26.1% | inhibition at 200 µM (plasma BuChE): 39.5%

COc1ccccc1N1CCN(c2nc(-c3ccc(C)cc3)cc(=O)[nH]2)CC1 [Compound B6]
inhibition at 100 µM (human rChAT): 7.6% | inhibition at 200 µM (recombinant human AChE): 2.6% | inhibition at 200 µM (plasma BuChE): 11%

O=C(Nc1ccc(CN2CCOCC2)cc1)c1ccc2c(c1)[nH]c(=O)n2CCc1ccccc1 [Compound B7]
inhibition at 100 µM (human rChAT): 13.3% | Ki (recombinant human AChE): 65.4 µM | IC50 (recombinant human AChE): 40.1 µM | inhibition at 200 µM (plasma BuChE): 14.9%

CN(C(=O)COc1ccc(-c2nn(C)c(=O)c3ccccc23)cc1)C1CCCCC1 [Compound C1]
inhibition at 100 µM (human rChAT): 0% | Ki (recombinant human AChE): 42.3 µM | IC50 (recombinant human AChE): 71.9 µM | inhibition at 200 µM (plasma BuChE): 9.8%

CCn1c(CNC(=O)COc2ccc(Cl)cc2)cc2ccccc21 [Compound C3]
inhibition at 100 µM (human rChAT): 0% | inhibition at 200 µM (recombinant human AChE): 22% | inhibition at 200 µM (plasma BuChE): 20.1%

COc1ccc(-c2nnc(-c3cc4c(ccc5ccccc54)oc3=O)o2)cc1 [Compound C6]
inhibition at 200 µM (recombinant human AChE): 33.1% | inhibition at 200 µM (plasma BuChE): 34.7%

COCCNc1c(-c2cc3cc(C)ccc3[nH]c2=O)nc2ccc(Cl)cn12 [Compound C7]
inhibition at 100 µM (human rChAT): 0% | inhibition at 200 µM (recombinant human AChE): 15.7% | inhibition at 200 µM (plasma BuChE): 29.4%

Cc1cccc(N2CCN(CC(=O)Nc3ccc(C)c(F)c3)CC2)c1 [Compound D1]
inhibition at 100 µM (human rChAT): 0% | inhibition at 200 µM (recombinant human AChE): 0% | inhibition at 200 µM (plasma BuChE): 20%

CC(=O)c1ccc(NC(=O)CN2CCN(c3cccc(C)c3C)CC2)cc1 [Compound D2]
inhibition at 100 µM (human rChAT): 0% | inhibition at 200 µM (recombinant human AChE): 18.1% | inhibition at 200 µM (plasma BuChE): 7%

COc1ccc(NC(=O)Cn2nc(C(F)(F)F)c3c2CCCC3)c(OC)c1 [Compound D5]
inhibition at 100 µM (human rChAT): 0% | inhibition at 200 µM (recombinant human AChE): 4.2% | inhibition at 200 µM (plasma BuChE): 7.8%

COc1ccc(-c2cc(C(F)(F)F)nc(SCCC(=O)N3CCN(C)CC3)n2)cc1 [Compound D6]
inhibition at 100 µM (human rChAT): 4.8% | inhibition at 200 µM (recombinant human AChE): 0% | inhibition at 200 µM (plasma BuChE): 9.3%

CCOc1ccc2[nH]c(=O)c(CN(Cc3ccccc3)C(=O)N3CCCC3)cc2c1 [Compound D7]
inhibition at 100 µM (human rChAT): 0% | inhibition at 200 µM (recombinant human AChE): 27.7% | inhibition at 200 µM (plasma BuChE): 22.4%

CCc1ccccc1NC(=O)CSc1nnc(-c2cccnc2)n1CC [Compound E2]
inhibition at 100 µM (human rChAT): 4.1% | inhibition at 200 µM (recombinant human AChE): 2.7% | inhibition at 200 µM (plasma BuChE): 12%

O=C(CSc1nnc(-c2cccc(F)c2)o1)N1CCC(Cc2ccccc2)CC1 [Compound E3]
inhibition at 100 µM (human rChAT): 10.3% | inhibition at 200 µM (recombinant human AChE): 10.2% | inhibition at 200 µM (plasma BuChE): 23%

COc1cccc(OCC(=O)Nc2cc3oc4ccccc4c3cc2OC)c1 [Compound E4]
inhibition at 100 µM (human rChAT): 4.8% | inhibition at 200 µM (recombinant human AChE): 1.5% | inhibition at 200 µM (plasma BuChE): 11.7%

C=C(C)CN1N=C(C)Cn2c1nc1c2c(=O)n(C/C=C/c2ccccc2)c(=O)n1C [Compound E5]
inhibition at 100 µM (human rChAT): 0% | inhibition at 200 µM (recombinant human AChE): 4.1% | inhibition at 200 µM (plasma BuChE): 12.8%

Cc1ccccc1OCC(=O)Oc1ccc2c(C)cc(=O)oc2c1 [Compound E6]
inhibition at 100 µM (human rChAT): 2.5% | inhibition at 200 µM (recombinant human AChE): 0% | inhibition at 200 µM (plasma BuChE): 13.2%

Cc1onc(-c2ccccc2Cl)c1C(=O)N1CCN(Cc2ccc3c(c2)OCO3)CC1 [Compound E7]
inhibition at 100 µM (human rChAT): 0% | inhibition at 200 µM (recombinant human AChE): 0.5% | inhibition at 200 µM (plasma BuChE): 37.5%
